Experimental data as given in PMC9180621, “Preparation of Novel Pyrazolo[4,3-e]tetrazolo[1,5-b][1,2,4]triazine Sulfonamides and Their Experimental and Computational Biological Studies” (International Journal of Molecular Sciences, 2022).

Key:
BxPC-3 cells [1] = test: Dual acridine orange/ethidium bromide (AO/EB) fluorescent staining, apoptosis; type: cell-based, human; conditions: BxPC-3, IC50 concentration, 24 h incubation
Protocol: (§1) Data are presented as mean percentage of apoptotic cells (early and late apoptotic) ± SD values. The differences between the experimental samples and vehicle control were evaluated by the ANOVA test followed by Tukey’s test (p < 0.05). Experiments were performed in triplicate. For flow cytometry analysis with Annexin V-FITC staining, the approximate number of analyzed cells was (N = 1 × 10^4), contrasting with the dual acridine orange/ethidium bromide (AO/EB) fluorescent staining (N = 200). Acridine orange/ethidium bromide (AO/EB) staining is used to detect nuclear alterations and the development of apoptotic bodies, which are both indicative of apoptosis. Acridine orange penetrates into living cells, emitting green fluorescence after intercalation into DNA. The second dye, ethidium bromide, emits red fluorescence in cells with an altered cell membrane. The cells are divided into three categories as follows: living cells (green nucleus with red orange cytoplasm); apoptotic (green irregularly nuclei with chromatin condensation or fragmentation); and necrotic cells (uniformly orange-stained cell nuclei). Programmed cell death is measured by counting the number of cells that undergo apoptosis under a fluorescent microscope. BxPC-3 and PC-3 cells were seeded at an appropriate density on 12-well plates (Table 9). […] Following the incubation period, cells were incubated with fluorochromes (AO/EB: 100 µM; 1:1, v/v) for 5 min at 37 °C in the dark. Viable, apoptotic, or necrotic cells were distinguished using this method based on differential uptake of fluorescent DNA-binding dyes (AO/EB) with the structural aspect of chromatin condensation in the stained nucleus. Cells were analyzed using a fluorescence microscope (Olympus BX60 F5 Olympus Optical Co., Ltd., Nagano, Japan) at 360 nm. The results were obtained from three independent experiments.

PC-3 cells [2] = test: as above; type: cell-based, human; conditions: PC-3, 48 h incubation, 2xIC50 concentration, AO/EB, ± SD; control 1.5 ± 0.7%
Protocol: as §1

BxPC-3 cells [3] = test: Annexin V-FITC/propidium iodide flow cytometry, apoptosis; type: cell-based, human; conditions: IC50 concentration, Annexin V-FITC, ± SD
Protocol: Data are presented as mean percentage of apoptotic cells (early and late apoptotic) ± SD values. The differences between the experimental samples and vehicle control were evaluated by the ANOVA test followed by Tukey’s test (p < 0.05). Experiments were performed in triplicate. For flow cytometry analysis with Annexin V-FITC staining, the approximate number of analyzed cells was (N = 1 × 10^4), contrasting with the dual acridine orange/ethidium bromide (AO/EB) fluorescent staining (N = 200).
The Annexin V-FITC Apoptosis Detection Kit was used to estimate the apoptosis induction following 24 and 48 h incubation with the tested MM-compounds. During apoptosis, phosphatidylserine is transformed from the inner cell membrane to the cell surface, which can be detected by the annexin-FITC complex. The addition of propidium iodide to the reaction mixture allows the assessment of cell membrane integrity. Using flow cytometry analysis, four subpopulations of cells can be distinguished: alive (non-stained), necrotic (propidium iodide stained), early apoptotic (annexin V stained cells), or late-apoptotic cells (propidium iodide and annexin V stained). BxPC-3 and PC-3 cells were seeded at appropriate density on a 6-well plate (Table 9).
The experimental design included vehicle control (final solvent concentration was < 0.5% v/v DMSO), and cells treated with 2 µM SN-38 (active metabolite of irinotecan) used as a positive compensation control. Cells were left for incubation for another 24 or 48 h (37 °C; 5% CO2). After exposure, cells were trypsinized and transferred to cytometric tubes, left for 40 min, and centrifuged at 1400 rpm for 10 min at 4 °C. Afterward, the supernatant was removed, and the precipitate was diluted in 1 mL of PBS. The rest of the procedure was performed according to the manufacturer’s instructions. The results were obtained from three independent experiments.

PC-3 cells [4] = test: MTT assay, cell viability; type: cell-based, human; conditions: Homo sapiens; PC-3, 72 h incubation, MTT, ± SD
Protocol: (§2) A statistical program (Graphpad Prism 7) was used to analyze obtained data (MTT test). The dose–response analysis was performed to estimate the inhibitory concentration (IC50) of the tested compounds. The IC50 value is defined as a concentration of the tested compound that leads to a reduction in cell pool viability by 50% compared to the negative control (accepted as 100%). % cell viability=Absorbance value of treated cells−Absorbance value of blank/Absorbance value of untreated cells−Absorbance value of blank×100%
(§3) To estimate cell viability following 72 h incubation with the tested MM-compounds (MM134, MM136, MM137, and MM139), the MTT test was used according to the PN-EN ISO 10993-5. It is a quantitative method based on the tetrazolium yellow dye MTT [3(4,5-dimethyl-2-thiazolyl)-2,5-diphenyl-2H-tetrazolium bromide], which is converted by living cells to a purple product, formazan, the concentration of which was measured colorimetrically. The MTT assay was performed according to the procedure described by Mosmann with modifications. At a density of approximately 8 × 10^3 cells per 100 µL/well, 96-well plates were seeded. Following the given incubation period in controlled conditions (37 °C; 5% CO2), cells were exposed to different concentrations of tested compounds in DMSO (range 0.05–3 µM) in a volume of 100 µL medium per well. Final solvent concentration of DMSO was < 0.5% v/v. The experimental design included vehicle controls and blanks (wells without cells).
(§4) After 72 h of incubation of cells with tested MM-compounds, 20 µL of MTT tetrazolium salt (5 mg/mL in PBS) was added to each well, and plates were incubated once again in a humidified atmosphere for 3 h (37 °C; 5% CO2). Following the incubation time, the solutions were removed and 100 µL of DMSO was added to dissolve the formazan complexes. Subsequently, a spectrophotometer (microplate reader Power Wave XS BioTek Instruments, Inc., Winooski, VT, USA) reading was performed at 570 nm. The experiments were performed in duplicates.

L929 cells = test: MTT assay, cell viability; type: cell-based; conditions: L929 normal mouse fibroblasts, 72 h incubation, ± SD
Protocol: as §2, §3, §4

WI-38 cells = test: MTT assay, cell viability; type: cell-based; conditions: WI-38 normal human fibroblasts, 72 h incubation, ± SD
Protocol: as §2, §3, §4

BxPC-3 cells [5] = test: MTT assay, cell viability; type: cell-based; conditions: Homo sapiens, BxPC-3, 72 h incubation, ± SD
Protocol: as §2, §3, §4

HCT-116 cells = test: MTT assay, cell viability; type: cell-based; conditions: Homo sapiens, HCT-116, 72 h incubation, ± SD
Protocol: as §2, §3, §4

BxPC-3 cells [6] = test: MitoTracker Red, mitochondria membrane potential; type: cell-based, human
Protocol: (§5) The fitness of the mitochondria and changes in MMP were assessed using MitoTracker Red. Data for experimental groups were presented as mean percentage of control group fluorescence intensity ± SD value (Figure 11, Table 2). Mitotracker Red is deposited in the mitochondrial matrix in response to changes in the inner transmembrane potential of the mitochondria. The intensity of fluorescence reflects the fitness of the mitochondria and alters with changes in MMP [91]. BxPC-3 and PC-3 cells were seeded at appropriate density on a 96-well plates (Table 9). […] After appropriate incubation time, cells were incubated with MitoTracker Red (0.1 µM/200 µL PBS/well) for 40 min. Afterward, MitoTracker Red solution was removed from the wells and PBS (200 µL/well) was added. Fluorescence was read at an […] of 581/644 nm using the SpectraMax® i3x Multi-Mode Detection Platform.

PC-3 cells [7] = test: MitoTracker Red, mitochondria membrane potential; type: cell-based, human
Protocol: as §5

Cc1nn(-c2ccc(S(=O)(=O)N3CCOCC3)cc2)c2nn3nnnc3nc12 [MM136]
increase in apoptotic fraction (BxPC-3 cells [1]): did not induce a significant increase
mean % of apoptotic cells (PC-3 cells [2]): 14.5 ± 0.7%
mean percentage of apoptotic cells (early and late apoptotic) (BxPC-3 cells [3]; BxPC-3, 24 h incubation, control 10.3 ± 2.09%): 41.7 ± 0.17%
mean percentage of apoptotic cells (early and late apoptotic) (BxPC-3 cells [3]; BxPC-3, 48 h incubation, control 8.3 ± 1.13%): 56.33 ± 4.96%
IC50 (PC-3 cells [4]): 130 ± 10 nM
IC50 (L929 cells): 220 ± 80 nM
IC50 (WI-38 cells): 480 ± 90 nM
IC50 (BxPC-3 cells [5]): 250 ± 80 nM
IC50 (HCT-116 cells): 250 ± 70 nM
mean percentage of control group fluorescence intensity (MMP) (BxPC-3 cells [6]; BxPC-3, 24 h incubation, 0.5IC50, ± SD): 82.83 ± 13.02%
mean percentage of control group fluorescence intensity (MMP) (BxPC-3 cells [6]; BxPC-3, 24 h incubation, 2xIC50, ± SD): 57.67 ± 5.56%
mean percentage of control group fluorescence intensity (MMP) (BxPC-3 cells [6]; BxPC-3, 24 h incubation, IC50, ± SD): 65.68 ± 4.58%
mean percentage of control group fluorescence intensity (MMP) (BxPC-3 cells [6]; BxPC-3, 48 h incubation, 0.5IC50, ± SD): 69.08 ± 4.40%
mean percentage of control group fluorescence intensity (MMP) (BxPC-3 cells [6]; BxPC-3, 48 h incubation, 2xIC50, ± SD): 61.83 ± 0.46%
mean percentage of control group fluorescence intensity (MMP) (BxPC-3 cells [6]; BxPC-3, 48 h incubation, IC50, ± SD): 62.37 ± 0.05%
mean percentage of control group fluorescence intensity (MMP) (PC-3 cells [7]; PC-3, 24 h incubation, 0.5IC50, ± SD): 96.3 ± 5.74%
mean percentage of control group fluorescence intensity (MMP) (PC-3 cells [7]; PC-3, 24 h incubation, 2xIC50, ± SD): 86.9 ± 7.22%
mean percentage of control group fluorescence intensity (MMP) (PC-3 cells [7]; PC-3, 24 h incubation, IC50, ± SD): 92.78 ± 0.9%
mean percentage of control group fluorescence intensity (MMP) (PC-3 cells [7]; PC-3, 48 h incubation, 0.5IC50, ± SD): 81.34 ± 0.4%
mean percentage of control group fluorescence intensity (MMP) (PC-3 cells [7]; PC-3, 48 h incubation, 2xIC50, ± SD): 47.38 ± 2.74%
mean percentage of control group fluorescence intensity (MMP) (PC-3 cells [7]; PC-3, 48 h incubation, IC50, ± SD): 61.24 ± 3.62%
